Measurements taken from patent US20140045746A1 (Merck Sharp & Dohme Corp., priority 2012, published 2014).
Converted amounts (≈) assume the structure as drawn.

Key:
[1] = biological target: T1, hGPR40 (Homo sapiens, UniProt O14842); test: GPR40 Inositol Phosphate Turnover (IP1) Assay; type: cell-based; parameters: expressed in transfected cells; host or cells: HEK cells stably expressing the aequorin reporter
Description: A human GPR40 stable cell-line was generated in HEK cells stably expressing the aequorin expressing reporter.
The assay is performed in 96-well format. HEK cells stably expressing human GPR^40 are plated to be 60-80% confluent within 72 h. After 72 h, the plates are aspirated and the cells washed with inositol-free DMEM (ICN). The wash media is replaced with 150 μL of 3H-inositol labeling media (inositol-free media containing 0.4% human albumin or 0.4% mouse albumin, 1× pen/strep antibiotics, glutamine, 25 mM HEPES to which is added 3H-myo-inositol NEN #NET114A 1mCi/mL, 25 Ci/mmol diluted 1:150 in loading media with a final specific radioactivity of 1 μCi/150 μL). Alternatively, the human and mouse albumin can be added after the overnight labeling step before the addition of LiCl.
The assay is typically run the next day after 18 h labeling. On the day of the assay, 5 μL, of 300 mM LiCl is added to all wells and incubated at 37 degrees for 20 min. 0.75 μL of 200× compounds are added and incubated with the cells for 60 min at 37 degrees. The media is then aspirated off and the assay terminated with the addition of 60 nI, 10 mM formic acid. The cells are lysed for 60 min at room temperature. 15-30 nI, of lysate is mixed with 70 mL/1 mg YSi SPA beads (Amersham) in clear bottom Isoplates. The plates are shaken for 2 h at room temperature. Beads are allowed to settle and the plates are counted in the Wallac Microbeta.

[2] = biological target: KV11.1 ion channel (hERG) (Homo sapiens, UniProt Q12809); test: Binding to ion channel Kv11.1 (hERG)
Sequence of KV11.1 ion channel (hERG) (Q12809 whole entry): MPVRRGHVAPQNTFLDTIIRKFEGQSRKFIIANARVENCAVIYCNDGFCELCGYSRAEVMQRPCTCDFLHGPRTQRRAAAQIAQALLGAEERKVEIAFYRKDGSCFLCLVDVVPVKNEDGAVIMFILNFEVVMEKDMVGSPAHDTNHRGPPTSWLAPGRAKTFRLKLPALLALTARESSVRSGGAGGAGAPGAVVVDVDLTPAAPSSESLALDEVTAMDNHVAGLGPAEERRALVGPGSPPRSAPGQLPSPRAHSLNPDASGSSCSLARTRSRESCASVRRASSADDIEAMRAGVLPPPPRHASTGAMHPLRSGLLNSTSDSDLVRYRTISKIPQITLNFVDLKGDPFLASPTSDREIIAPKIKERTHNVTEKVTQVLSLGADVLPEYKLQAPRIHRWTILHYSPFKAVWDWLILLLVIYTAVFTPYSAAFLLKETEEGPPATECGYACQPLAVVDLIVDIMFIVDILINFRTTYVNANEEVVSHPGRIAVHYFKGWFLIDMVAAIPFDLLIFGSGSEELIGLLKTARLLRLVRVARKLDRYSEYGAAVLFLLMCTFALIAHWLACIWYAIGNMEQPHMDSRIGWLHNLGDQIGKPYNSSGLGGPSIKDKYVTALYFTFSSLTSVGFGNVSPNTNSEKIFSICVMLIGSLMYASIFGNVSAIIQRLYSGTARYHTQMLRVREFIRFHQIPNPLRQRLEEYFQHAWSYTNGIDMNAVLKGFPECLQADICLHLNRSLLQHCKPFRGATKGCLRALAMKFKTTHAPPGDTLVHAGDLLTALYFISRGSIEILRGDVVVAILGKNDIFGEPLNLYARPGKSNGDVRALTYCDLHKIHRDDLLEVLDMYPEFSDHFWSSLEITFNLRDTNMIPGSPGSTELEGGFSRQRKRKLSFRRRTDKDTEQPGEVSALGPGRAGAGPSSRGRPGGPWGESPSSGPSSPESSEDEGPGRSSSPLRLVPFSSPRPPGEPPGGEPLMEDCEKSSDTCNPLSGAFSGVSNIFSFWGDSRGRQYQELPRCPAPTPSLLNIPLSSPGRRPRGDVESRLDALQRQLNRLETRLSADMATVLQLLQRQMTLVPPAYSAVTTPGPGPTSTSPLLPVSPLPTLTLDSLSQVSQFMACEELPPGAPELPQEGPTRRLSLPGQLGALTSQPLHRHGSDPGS

[3] = Solubility in PBS pH 7; type: physicochemical; conditions: aqueous buffer; pH 7, PBS
[4] = biological target: T1, hGPR40; test: GPR40 FLIPR assay (agonist-induced calcium mobilization); type: cell-based; parameters: expressed in transfected cells; host or cells: CHO cells stably expressing NFAT BLA (beta-lactamase); conditions: GPR40/CHO NFAT BLA cells;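 further: calcium mobilization in the cells read as fluorescence of fluo-4 AM loaded cells on FLIPR after compound addition, cells preloaded with dye 100 min at room temperature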
Description: Human and mouse GPR40 stable cell-lines were generated in CHO cells stably expressing NFAT BLA (Beta-lactamase). […] The expression plasmids were transfected using lipofectamine (Life Technologies) following manufacturer's instructions. Stable cell-lines were generated following drug selection.
FLIPR (Fluorimetric Imaging Plate Reader, Molecular Devices) assays were performed to measure agonist-induced calcium mobilization of the stable clones. For the FLIPR assay, one day before assay, GPR40/CHO NFAT BLA cells were seeded into black-wall-clear-bottom 384-well plates (Costar) at 1.4×10e4 cells/20 μL medium/well. The cells were incubated with 20 μl/well of the assay buffer (HBSS, 0.1% BSA, 20 mM HEPES, 2.5 mM probenecid, pH 7.4) containing 8 μM fluo-4, AM, 0.08% pluronic acid at room temperature for 100 minutes. Fluorescence output was measured using FLIPR. Compounds were dissolved in DMSO and diluted to desired concentrations with assay buffer. 13.3 μL/well of compound solution was added.

[5] = +0% human serum (Table A), read-out: Human GPR40 IP1, EC50, +0% human serum
[6] = +100% human serum (Table A), read-out: Human GPR40 IP1, EC50, +100% human serum
[7] = HEK cells stably expressing human GPR40, 0% serum, read-out: hGPR40 IP1 EC50 (0% serum)

T1 sequence (O14842 whole entry): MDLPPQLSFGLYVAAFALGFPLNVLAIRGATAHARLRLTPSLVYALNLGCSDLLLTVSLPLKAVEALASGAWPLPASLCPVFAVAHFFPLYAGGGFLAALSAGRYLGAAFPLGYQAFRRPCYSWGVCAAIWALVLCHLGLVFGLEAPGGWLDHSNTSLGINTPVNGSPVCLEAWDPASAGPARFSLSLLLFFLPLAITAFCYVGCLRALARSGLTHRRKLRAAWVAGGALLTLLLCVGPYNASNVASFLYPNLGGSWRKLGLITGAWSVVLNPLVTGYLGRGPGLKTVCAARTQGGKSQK

Structure (SMILES)	EC50 [1, 5] [nM]	EC50 [1, 6] [nM]	Ki [2] [µM]	solubility [3] [µM]	EC50 [1, 7] [nM]	EC50 [4] [nM]
Cc1cc(CCCC(C)(C)O)cc(C)c1-c1ccc(F)c(COc2cc3c(cn2)[C@H]2[C@@H](C3)[C@@H]2C(=O)O)c1 (single isomer, unassigned) [Compound A-4]	5	124	7.5	143 (≈ 72 µg/mL)	–	–
Cc1cc(OCC2(C)COC2)cc(C)c1-c1ccc(F)c(COc2cc3c(cn2)[C@H]2[C@@H](C3)[C@@H]2C(=O)O)c1 (single isomer, unassigned) [Compound A-3]	9	81	40.2	107 (≈ 53.9 µg/mL)	–	–
Cc1cc(OCC2(C)COC2)cc(C)c1-c1cccc(COc2ccc3c(c2)C[C@H]2[C@H](C(=O)O)[C@@H]32)c1 [Compound B-2, reference compound]	70	816	8.6	21 (≈ 10.2 µg/mL)	–	–
Cc1cc(CCCC(C)(C)O)cc(C)c1-c1ccc(F)c(COc2ccc3c(c2)C[C@H]2[C@H](C(=O)O)[C@@H]32)c1 [Compound B-4, reference compound]	100	348	–	66 (≈ 33.2 µg/mL)	–	–
Cc1cccc(C)c1-c1cccc(COc2cc3c(cn2)[C@H]2[C@@H](C3)[C@@H]2C(=O)O)c1C [Compound A-1]	6	81	40	73 (≈ 29.2 µg/mL)	–	–
Cc1cc(OCC2(C)COC2)cc(C)c1-c1cccc(COc2cc3c(cn2)[C@H]2[C@@H](C3)[C@@H]2C(=O)O)c1 (single isomer, unassigned) [Compound A-2]	18	199	–	118 (≈ 57.3 µg/mL)	–	–
Cc1cc(OCC2(C)COC2)cc(C)c1-c1ccc(F)c(COc2ccc3c(c2)C[C@H]2[C@H](C(=O)O)[C@@H]32)c1 [Compound B-3, reference compound]	31	286	7.8	49 (≈ 24.6 µg/mL)	–	–
Cc1cccc(C)c1-c1cccc(COc2ccc3c(c2)C[C@H]2[C@H](C(=O)O)[C@@H]32)c1C [Compound B-1, reference compound]	69	322	6	56 (≈ 22.3 µg/mL)	–	–
Cc1cc(OCCCC(C)(C)C#N)cc(C)c1-c1cccc(COc2cc3c(cn2)C2[C@@H](C3)[C@@H]2C(=O)O)c1 (stereo partly drawn) [Compound 28-6, (5aR,6S,6aR)-3-((4′-((4-cyano-4-methylpentyl)oxy)-2′,6′-dimethyl-[1,1′-biphenyl]-3-yl)methoxy)-5,5a,6,6a-tetrahdrocyclopropa[4,5]cyclopenta[1,2-c]pyridine-6-carboxylic acid]	–	–	–	–	66	24
O=C(O)C1C2Cc3cc(OCc4cc(-c5ncccc5C(F)(F)F)ccc4F)ncc3C21 (stereo not drawn) [Compound 22-9, 3-((2-fluoro-5-(3-(trifluoromethyl)pyridin-2-yl)benzyl)oxy)-5,5a,6,6a-tetrahydrocyclopropa[4,5] cyclopenta[1,2-c]pyridine-6-carboxylic acid]	–	–	–	–	850	95
Cc1cc(OC[C@H](C)O)cc(C)c1-c1ccc(F)c(COc2cc3c(cn2)[C@H]2[C@@H](C3)[C@@H]2C(=O)O)c1 [Compound 6-4, (5aR,6S,6aS)-3-((4-fluoro-4′-((S)-2-hydroxypropoxy)-2′,6′-dimethyl-[1,1′-biphenyl]-3-yl)methoxy)-5,5a,6,6a-tetrahydrocyclopropa[4,5]cyclopenta[1,2-c]pyridine-6-carboxylic acid]	–	–	–	–	8.4	40
